We go through nine compounds from patent US7728012B2, “Carboxamide compounds and their use as calpain inhibitors” (Abbott GmbH & Co. KG, priority 2006, dated 2010).

What all share (type): biochemical
Assay [1] addresses T1, calpain-I isolated from human erythrocytes (Homo sapiens, UniProt P07384).
T1 construct: calpain-I—isolated from human erythrocytes; purchased Calbiochem 208713; host or cells: human erythrocytes (tissue isolate)
T1 sequence (P07384 1-714): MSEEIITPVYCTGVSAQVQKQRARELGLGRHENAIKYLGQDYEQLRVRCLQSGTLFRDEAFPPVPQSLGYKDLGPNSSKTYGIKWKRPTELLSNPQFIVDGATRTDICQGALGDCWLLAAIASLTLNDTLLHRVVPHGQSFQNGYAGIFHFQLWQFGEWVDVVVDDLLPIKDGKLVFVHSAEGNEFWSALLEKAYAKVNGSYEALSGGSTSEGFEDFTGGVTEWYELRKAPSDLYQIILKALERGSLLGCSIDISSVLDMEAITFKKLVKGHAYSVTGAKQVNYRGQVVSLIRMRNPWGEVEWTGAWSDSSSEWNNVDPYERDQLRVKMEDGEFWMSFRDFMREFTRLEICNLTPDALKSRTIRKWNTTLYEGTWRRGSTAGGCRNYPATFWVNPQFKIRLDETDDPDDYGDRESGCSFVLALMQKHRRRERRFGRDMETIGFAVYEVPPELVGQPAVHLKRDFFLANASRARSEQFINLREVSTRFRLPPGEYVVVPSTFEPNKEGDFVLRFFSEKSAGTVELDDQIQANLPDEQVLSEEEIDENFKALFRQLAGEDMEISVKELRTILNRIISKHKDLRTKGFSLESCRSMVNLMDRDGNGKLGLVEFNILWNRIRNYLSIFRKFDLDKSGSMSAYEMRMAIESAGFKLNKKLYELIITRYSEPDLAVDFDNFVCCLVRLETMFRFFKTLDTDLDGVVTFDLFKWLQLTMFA
T1 sequence (P04632 1-268 partner): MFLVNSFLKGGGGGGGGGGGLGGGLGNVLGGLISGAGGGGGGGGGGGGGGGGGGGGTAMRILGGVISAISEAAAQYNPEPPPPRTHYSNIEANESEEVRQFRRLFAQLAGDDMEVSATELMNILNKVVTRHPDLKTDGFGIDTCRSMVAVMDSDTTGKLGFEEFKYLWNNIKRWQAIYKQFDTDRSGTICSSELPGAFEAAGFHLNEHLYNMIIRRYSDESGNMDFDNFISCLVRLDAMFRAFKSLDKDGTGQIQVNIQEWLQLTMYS
The assay can be described thus: Calpain I kinetic fluorescence enzyme inhibition assay. The following applies: apparent Ki from IC50 by Cheng-Prussoff; average of 2 to 4 dose-effect plots.

The target of assay [2] is T2, cathepsin B isolated from human liver (Homo sapiens, UniProt P07858).
T2 construct: cathepsin B—isolated from human liver; purchased Calbiochem 219362; host or cells: human liver (tissue isolate)
The assay can be described thus: Cathepsin B kinetic fluorescence enzyme inhibition assay. The note with it: selectivity ratio versus calpain I. Summed up: (§1)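 Inhibition is measured at room temperature in cysteine-containing MES buffer, pH 6.0, by continuous fluorescence at 460 nm. Cathepsin S (0.5 nM) uses 20 μM Z-Val-Val-Arg-AMC; L (1 nM) and B (0.25 nM) use Z-Phe-Arg-AMC at 2 and 100 μM respectively.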

For assay [3], the target named is T3, cathepsin K activated from recombinant human procathepsin K (Homo sapiens, UniProt P43235).
T3 construct: purchased Calbiochem 342001; host or cells: E. coli
T3 sequence (P43235 115-329): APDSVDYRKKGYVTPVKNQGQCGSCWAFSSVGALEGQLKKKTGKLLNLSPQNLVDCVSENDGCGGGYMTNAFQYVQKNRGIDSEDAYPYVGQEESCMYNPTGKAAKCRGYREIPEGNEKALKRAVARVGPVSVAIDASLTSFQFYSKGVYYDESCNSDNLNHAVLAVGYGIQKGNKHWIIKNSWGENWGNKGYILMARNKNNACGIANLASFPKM
The assay can be described thus: Cathepsin K kinetic fluorescence enzyme inhibition assay. The note with it: selectivity ratio versus calpain I.

The target of assay [4] is T4, cathepsin L isolated from human liver (Homo sapiens, UniProt P07711).
T4 construct: cathepsin L—isolated from human liver; purchased Calbiochem 219402; host or cells: human liver (tissue isolate)
The assay can be described thus: Cathepsin L kinetic fluorescence enzyme inhibition assay. The note with it: selectivity ratio versus calpain I. Put shortly: as §1

For assay [5], the target named is T5, recombinant human cathepsin S (Homo sapiens, UniProt P25774).
T5 construct: purchased Calbiochem 219343; host or cells: E. coli
The assay can be described thus: Cathepsin S kinetic fluorescence enzyme inhibition assay. The following applies: selectivity ratio versus calpain I. Put shortly: as §1

T5 sequence (P25774 115-331): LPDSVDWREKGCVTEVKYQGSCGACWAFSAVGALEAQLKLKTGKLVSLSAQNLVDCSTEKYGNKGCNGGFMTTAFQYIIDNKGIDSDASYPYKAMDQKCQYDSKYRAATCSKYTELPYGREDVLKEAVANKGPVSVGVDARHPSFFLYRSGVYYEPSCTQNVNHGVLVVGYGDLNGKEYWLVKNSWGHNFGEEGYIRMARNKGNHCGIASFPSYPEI
T4 sequence (P07711 114-333): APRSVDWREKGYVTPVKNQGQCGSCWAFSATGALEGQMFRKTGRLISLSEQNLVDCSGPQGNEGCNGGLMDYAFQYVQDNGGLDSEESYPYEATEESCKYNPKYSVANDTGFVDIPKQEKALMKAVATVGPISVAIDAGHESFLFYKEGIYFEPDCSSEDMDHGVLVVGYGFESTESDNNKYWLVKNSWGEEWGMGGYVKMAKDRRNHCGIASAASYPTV

Take `NC(=O)C(=O)C(Cc1ccccc1)NC(=O)c1cccnc1-n1ccc(-c2ccccc2OC(F)F)n1` (stereo not drawn) [Example 166, N-[3-Amino-2,3-dioxo-1-(phenylmethyl)propyl]-2-(3-{2-[(difluoromethyl)oxy]phenyl}-1H-pyrazol-1-yl)pyridine-3-carboxamide]: the Ki in assay [1] was no more than 40 nM. Also, the “Sel cat. B (Ki(cathepsin B)/Ki(calpain) ratio)” value in assay [2] is given as “+ (10≦Ki(cathepsin B)/Ki(calpain)<30)”. The “Sel cat. K (Ki(cathepsin K)/Ki(calpain) ratio)” value in assay [3] is “++ (Ki(cathepsin K)/Ki(calpain) ratio of ≧30)”. In assay [4], the “Sel cat. L (Ki(cathepsin L)/Ki(calpain) ratio)” value was “++ (Ki(cathepsin L)/Ki(calpain) ratio of ≧50)”. For the same compound, the “Sel cat. S (Ki(cathepsin S)/Ki(calpain) ratio)” value in assay [5] is recorded as “++ (Ki(cathepsin S)/Ki(calpain) ratio of ≧100)”.

For `NC(=O)C(=O)C(Cc1ccccc1)NC(=O)c1cccnc1-n1ccc(-c2cccc(OC(F)(F)F)c2)n1` (stereo not drawn) [Example 168, N-[3-Amino-2,3-dioxo-1-(phenylmethyl)propyl]-2-(3-{3-[(trifluoromethyl)oxy]phenyl}-1H-pyrazol-1-yl)pyridine-3-carboxamide], the Ki in assay [1] is no more than 40 nM. Further, the “Sel cat. B (Ki(cathepsin B)/Ki(calpain) ratio)” value in assay [2] was “+ (10≦Ki(cathepsin B)/Ki(calpain)<30)”. Also, the “Sel cat. K (Ki(cathepsin K)/Ki(calpain) ratio)” value in assay [3] is given as “+ (10≦Ki(cathepsin K)/Ki(calpain)<30)”. In assay [4], the “Sel cat. L (Ki(cathepsin L)/Ki(calpain) ratio)” value is given as “++ (Ki(cathepsin L)/Ki(calpain) ratio of ≧50)”. The “Sel cat. S (Ki(cathepsin S)/Ki(calpain) ratio)” value in assay [5] was “++ (Ki(cathepsin S)/Ki(calpain) ratio of ≧100)”.

`NC(=O)C(=O)C(Cc1ccccc1)NC(=O)c1cccnc1-n1cc2c(n1)-c1ccccc1SC2` (stereo not drawn) [Example 173, N-[3-Amino-2,3-dioxo-1-(phenylmethyl)propyl]-2-thiochromeno[4,3-c]pyrazol-2(4H)-ylpyridine-3-carboxamide]: in assay [1], the Ki is no more than 40 nM. In addition, the “Sel cat. B (Ki(cathepsin B)/Ki(calpain) ratio)” value in assay [2] is on record as “+ (10≦Ki(cathepsin B)/Ki(calpain)<30)”. Also, in assay [3], the “Sel cat. K (Ki(cathepsin K)/Ki(calpain) ratio)” value is “+ (10≦Ki(cathepsin K)/Ki(calpain)<30)”. For the same compound, the “Sel cat. L (Ki(cathepsin L)/Ki(calpain) ratio)” value in assay [4] is recorded as “++ (Ki(cathepsin L)/Ki(calpain) ratio of ≧50)”. Also, the “Sel cat. S (Ki(cathepsin S)/Ki(calpain) ratio)” value in assay [5] was “++ (Ki(cathepsin S)/Ki(calpain) ratio of ≧100)”.

With `NC(=O)C(=O)C(Cc1ccccc1)NC(=O)c1cccnc1-n1cc2c(n1)-c1ccccc1S(=O)(=O)C2` (stereo not drawn) [Example 174, N-[3-Amino-2,3-dioxo-1-(phenylmethyl)propyl]-2-(5,5-dioxidothiochromeno[4,3-c]pyrazol-2(4H)-yl)pyridine-3-carboxamide], in assay [1], the Ki was no more than 40 nM. Also, the “Sel cat. B (Ki(cathepsin B)/Ki(calpain) ratio)” value in assay [2] is on record as “+ (10≦Ki(cathepsin B)/Ki(calpain)<30)”. Moreover, the “Sel cat. K (Ki(cathepsin K)/Ki(calpain) ratio)” value in assay [3] is recorded as “+ (10≦Ki(cathepsin K)/Ki(calpain)<30)”. Also, the “Sel cat. L (Ki(cathepsin L)/Ki(calpain) ratio)” value in assay [4] is “++ (Ki(cathepsin L)/Ki(calpain) ratio of ≧50)”. In assay [5], the “Sel cat. S (Ki(cathepsin S)/Ki(calpain) ratio)” value is given as “++ (Ki(cathepsin S)/Ki(calpain) ratio of ≧100)”.

Regarding `NC(=O)C(=O)C(Cc1ccccc1)NC(=O)c1cccnc1-n1cc2c(n1)-c1cccc(Cl)c1OC2` (stereo not drawn) [Example 175, N-[3-Amino-2,3-dioxo-1-(phenylmethyl)propyl]-2-(6-chlorochromeno[4,3-c]pyrazol-2(4H)-yl)pyridine-3-carboxamide], the Ki in assay [1] was no more than 40 nM. For the same compound, in assay [2], the “Sel cat. B (Ki(cathepsin B)/Ki(calpain) ratio)” value is “++ (Ki(cathepsin B)/Ki(calpain) ratio of ≧30)”. Also, the “Sel cat. K (Ki(cathepsin K)/Ki(calpain) ratio)” value in assay [3] is reported as “++ (Ki(cathepsin K)/Ki(calpain) ratio of ≧30)”. Also, the “Sel cat. L (Ki(cathepsin L)/Ki(calpain) ratio)” value in assay [4] is “++ (Ki(cathepsin L)/Ki(calpain) ratio of ≧50)”. Besides, in assay [5], the “Sel cat. S (Ki(cathepsin S)/Ki(calpain) ratio)” value was “++ (Ki(cathepsin S)/Ki(calpain) ratio of ≧100)”.

Take `COc1ccc2c(c1)-c1nn(-c3ncccc3C(=O)NC(Cc3ccccc3)C(=O)C(N)=O)cc1CO2` (stereo not drawn) [Example 183, N-[3-Aamino-2,3-dioxo-1-(phenylmethyl)propyl]-2-[8-(methyloxy)chromeno[4,3-c]pyrazol-2(4H)-yl]pyridine-3-carboxamide]: the Ki in assay [1] was no more than 40 nM. Further, the “Sel cat. B (Ki(cathepsin B)/Ki(calpain) ratio)” value in assay [2] is “+ (10≦Ki(cathepsin B)/Ki(calpain)<30)”. The “Sel cat. K (Ki(cathepsin K)/Ki(calpain) ratio)” value in assay [3] is “+ (10≦Ki(cathepsin K)/Ki(calpain)<30)”. In addition, the “Sel cat. L (Ki(cathepsin L)/Ki(calpain) ratio)” value in assay [4] is recorded as “++ (Ki(cathepsin L)/Ki(calpain) ratio of ≧50)”. In assay [5], the “Sel cat. S (Ki(cathepsin S)/Ki(calpain) ratio)” value is “++ (Ki(cathepsin S)/Ki(calpain) ratio of ≧100)”.

As for `NC(=O)C(=O)C(Cc1ccccc1)NC(=O)c1cccnc1-n1cc(Cl)c(-c2ccc(F)cc2)n1` (stereo not drawn) [Example 184, N-[3-Amino-2,3-dioxo-1-(phenylmethyl)propyl]-2-[4-chloro-3-(4-fluorophenyl)-1H-pyrazol-1-yl]pyridine-3-carboxamide], in assay [1], the Ki was in the range of 40 to 100 nM. For the same compound, the “Sel cat. B (Ki(cathepsin B)/Ki(calpain) ratio)” value in assay [2] is on record as “+ (10≦Ki(cathepsin B)/Ki(calpain)<30)”. Further, in assay [3], the “Sel cat. K (Ki(cathepsin K)/Ki(calpain) ratio)” value is recorded as “+ (10≦Ki(cathepsin K)/Ki(calpain)<30)”. In assay [4], the “Sel cat. L (Ki(cathepsin L)/Ki(calpain) ratio)” value was “++ (Ki(cathepsin L)/Ki(calpain) ratio of ≧50)”. Moreover, in assay [5], the “Sel cat. S (Ki(cathepsin S)/Ki(calpain) ratio)” value is on record as “++ (Ki(cathepsin S)/Ki(calpain) ratio of ≧100)”.

With `NC(=O)C(=O)C(Cc1ccccc1)NC(=O)c1cccnc1-n1ccc(C23CC4CC(CC(C4)C2)C3)n1` (stereo not drawn) [Example 193, N-[3-Amino-2,3-dioxo-1-(phenylmethyl)propyl]-2-(3-tricyclo[3.3.1.1^3,7]dec-1-yl-1H-pyrazol-1-yl)pyridine-3-carboxamide], in assay [1], the Ki is no more than 40 nM. Moreover, the “Sel cat. B (Ki(cathepsin B)/Ki(calpain) ratio)” value in assay [2] is “++ (Ki(cathepsin B)/Ki(calpain) ratio of ≧30)”. In assay [3], the “Sel cat. K (Ki(cathepsin K)/Ki(calpain) ratio)” value is on record as “++ (Ki(cathepsin K)/Ki(calpain) ratio of ≧30)”. In addition, the “Sel cat. L (Ki(cathepsin L)/Ki(calpain) ratio)” value in assay [4] is listed as “++ (Ki(cathepsin L)/Ki(calpain) ratio of ≧50)”. For the same compound, the “Sel cat. S (Ki(cathepsin S)/Ki(calpain) ratio)” value in assay [5] was “++ (Ki(cathepsin S)/Ki(calpain) ratio of ≧100)”.

Consider “N-[3-Amino-2,3-dioxo-1-(phenylmethyl)propyl]-2-[3-(3,5-dichlorophenyl)-1H-pyrazol-1-yl]pyridine-3-carboxamide [Example 89]”, for which the Ki in assay [1] is 40 to 100 nM. For the same compound, the “Sel cat. B (Ki(cathepsin B)/Ki(calpain) ratio)” value in assay [2] is recorded as “+ (10≦Ki(cathepsin B)/Ki(calpain)<30)”. Moreover, the “Sel cat. K (Ki(cathepsin K)/Ki(calpain) ratio)” value in assay [3] is listed as “+ (10≦Ki(cathepsin K)/Ki(calpain)<30)”. Also, the “Sel cat. L (Ki(cathepsin L)/Ki(calpain) ratio)” value in assay [4] was “++ (Ki(cathepsin L)/Ki(calpain) ratio of ≧50)”. Also, the “Sel cat. S (Ki(cathepsin S)/Ki(calpain) ratio)” value in assay [5] was “++ (Ki(cathepsin S)/Ki(calpain) ratio of ≧100)”.
